Experimental data from patent publication US20080194611A1, “Modulation of Cell Barrier Dysfunction” (priority 2005, published 2008).

Legend:
[1] = cited from earlier work
[2] = tested on: PA-I lectin/adhesin expression in P. aeruginosa 27853/PLL-EGFP
MDCK cells = format: cell-based
P. aeruginosa biofilm = format: cell-based, Pseudomonas aeruginosa
[3] = tested on: PA-I lectin/adhesin expression in P. aeruginosa PA27853 and PAO1
[4] = tested on: pyocyanin (PCN) production in P. aeruginosa; format: cell-based, Pseudomonas aeruginosa
P. aeruginosa = format: cell-based, Pseudomonas aeruginosa
[5] = tested on: Human pulmonary microvascular endothelial cell; format: cell-based; details: for effect of agonist alone on endothelial cell barrier function (TER): HPMVEC
[6] = cited from earlier work; remark: listed apart in the source
S1P3 receptor = assay: Tyrosine phosphorylation (transactivation) of the S1P3 receptor; format: cell-based, Human; details: pre-treatment
[7] = in vivo; cited from earlier work
[8] = tested on: P. aeruginosa whole cells and membrane fractions; assay: ELISA / immunofluorescence binding of cytokines to P. aeruginosa cells and membrane fractions; parameters: species or system Pseudomonas aeruginosa; details: for binding to P. aeruginosa membrane fractions: PAO1 membranes, ELISA
Protocol: IFN-γ direct binding to a protein on the surface of P. aeruginosa, in the course of virulence activation, was also investigated. ELISA binding assays were performed by first coating microtiter plates with P. aeruginosa (strain PAO1), then adding recombinant human IFN-γ (rH IFN-γ), followed by biotin-labeled anti-IFN-γ antibody. […] In order to localize the binding site of IFN-γ to P. aeruginosa (PAO1), equal protein concentrations of membrane and cytosol fractions of P. aeruginosa were prepared and coated onto ELISA microtiter plates.

[9] = target: T1, outer membrane protein OprF (Pseudomonas aeruginosa, UniProt P13794); assay: Binding of IFN-γ to purified OprF; details: dose-dependent
T1 sequence (P13794 25-350): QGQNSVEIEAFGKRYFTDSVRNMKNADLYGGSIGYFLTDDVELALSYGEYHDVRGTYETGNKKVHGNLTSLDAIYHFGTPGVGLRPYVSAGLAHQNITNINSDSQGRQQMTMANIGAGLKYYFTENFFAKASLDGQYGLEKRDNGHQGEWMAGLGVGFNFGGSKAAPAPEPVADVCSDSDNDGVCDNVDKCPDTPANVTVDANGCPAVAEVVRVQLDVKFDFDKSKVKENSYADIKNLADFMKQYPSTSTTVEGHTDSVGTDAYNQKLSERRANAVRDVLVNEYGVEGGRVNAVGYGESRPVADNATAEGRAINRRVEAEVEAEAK

[10] = tested on: quorum sensing signaling system of P. aeruginosa PAO1; assay: Quorum sensing activation in PAO1 (rhlI Northern blot, C4-HSL in supernatants); format: cell-based, Pseudomonas aeruginosa
Caco-2 cell monolayers = assay: Barrier dysregulation of Caco-2 monolayers by PA27853 in the presence of IFN-γ; format: cell-based, Human; details: after five hours of incubation
Protocol: In addition, strains were exposed to apical media from Caco-2 cells basolaterally exposed to single and combinations of the various epithelial-derived cytokines. […] Media from Caco-2 cells exposed to various combinations of these cytokines had no effect on PA-I expression. […] Using both ELISA, immunofluorescence microscopy, and flow cytometry, the binding characteristics of IFNγ were determined for both whole bacteria and membrane fractions of P. aeruginosa. […] These effects were also observed with strain PAO1. […] It has been difficult to immunoprecipitate a significant quantity of this protein from PA27853, but it has been determined that this protein can also be immunoprecipitated from E. coli. Next, IFN-γ binding specificity, to whole bacterial cells, was determined, using reiterative binding studies in the presence of various gram-negative bacterial strains, including P. aeruginosa. […] Finally, in order to determine if PA-I was functionally expressed in […] in the presence IFN-γ, PA27853 was inoculated onto Caco-2 cell monolayers in the presence of IFN-γ and the effect on barrier dysregulating dynamics of PA27853 against this cell line were assessed to determine if IFN-γ shifted the dynamics. IFN-γ enhanced the barrier dysregulating effect of PA27853 against the intestinal epithelium after five hours of incubation by about 20%. […]

## C[C@H]1CN(C[C@H](Cc2ccccc2)C(=O)NCC(=O)O)CCC1(C)c1cccc(O)c1 (single isomer, unassigned; (+)) [formula (II), (+)-Z-NHCH2 C(O)OH]
[1]
  solubility in water: low solubility in water except at low or high pH conditions

## Nc1ncnc2c1ncn2[C@@H]1O[C@H](COP(=O)(O)OP(=O)(O)O)[C@@H](O)[C@H]1O [ADP]
[2]
  PA-I expression: no evident inducing effect

## Nc1ncnc2c1ncn2[C@@H]1O[C@H](COP(=O)(O)O)[C@@H](O)[C@H]1O [AMP]
[2]
  PA-I expression: no evident inducing effect

## Nc1ncnc2c1ncn2[C@@H]1O[C@H](COP(=O)(O)OP(=O)(O)OP(=O)(O)O)[C@@H](O)[C@H]1O [ATP]
[2]
  PA-I expression: no evident inducing effect

## C=CCN1C[C@H](C)N([C@H](c2ccc(C(=O)N(CC)CC)cc2)c2cccc(O)c2)C[C@H]1C [BW373U86]
MDCK cells
  additional TEER decrease: ~25%
[2]
  PA-I expression judged by fluorescence of the GFP reporter strain: greatest effect on PA-I expression
P. aeruginosa biofilm
  biofilm production: ~180 % of PA27853 induction
[3]
  PA-I protein expression: induced a response equal to C4-HSL
  response to express PA-I: induce a robust response

## CCCC(=O)N[C@H]1CCOC1=O [C4-HSL, C4-homoserine lactone]
[3]
  PA-I expression: induced PA-I expression
  increase in PA-I expression: ~16 fold
[4]
  PCN production in seven additional mvfR mutants: none of these mutants produced PCN
  PCN production in ΔGacA and ΔMvfR: unable to restore PCN production
  PCN production in ΔGacA/gacA: decreased, albeit minimally
  PCN production in ΔMvfR/mvfR: further increased the already elevated PCN production
  PCN production versus cell density: shift in the production of PCN at lower cell densities
  PCN response of MvfR mutant 121-332: did not respond to U-50,488 or C4-HSL
  PCN response of MvfR mutants 1-292, 1-291, 1-283: did not respond to U-50,488 and C4-HSL
  PCN response of MvfR mutants 1-299 and 1-293: responded to U-50,488 and C4-HSL with enhanced PCN production
  dynamic tracking of PCN production in ΔMvfR/mvfR: demonstrated a shift in PCN production at lower cell densities
  dynamics of PCN production in ΔGacA/gacA: had no effect on the dynamics of PCN production
P. aeruginosa
  effect on bacterial growth: Neither compound had an effect on bacterial growth

## C[C@@H](O)C(=O)O [D-lactate]
[2]
  PA-I promoter activity (fluorescence): had no effect on PA-I promoter activity

## C[C@@H](NC(=O)[C@@H](N)Cc1ccc(O)cc1)C(=O)NCC(=O)N(C)[C@@H](Cc1ccccc1)C(=O)NCCO [DAMGO, [D-Ala^2, N-MePhe^4, Gly^5-ol]]
[5]
  effect of agonist alone on endothelial cell barrier function (TER): induced endothelial cell barrier disruption in a dose-dependent manner

## CC(=O)N[C@H]1C(O)O[C@H](CO)[C@H](O)[C@@H]1O (stereo partly drawn) [GalNac, N-acetylgalactoside]
[3]; Caco-2
  PA-I mRNA increase on dense adherence to Caco-2 cells: nearly completely abolished
  PA-I mRNA induced by Caco-2 cell membrane fractions: attenuated

## C[C@H](O)C(=O)O [L-lactate]
[2]
  PA-I promoter activity (fluorescence): had no effect on PA-I promoter activity

## COC(=O)c1ccccc1N [MA, methyl anthranilate]
[4]
  effect on U-50,488-enhanced PCN production: inhibited the ability of U-50,488 to enhance PCN production

## Oc1ccc2c3c1O[C@H]1c4[nH]c5c(c4C[C@@]4(O)[C@@H](C2)N(CC2CC2)CC[C@]314)C[C@@]1(O)[C@H]2Cc3ccc(O)c4c3[C@@]1(CCN2CC1CC1)[C@H]5O4 [NOR, nor-binaltorphimine]
[4]
  effect on U-50,488-enhanced PCN production: attenuates enhanced PCN production
[4]; PAO1
  dose that completely inhibits U-50,488-enhanced PCN production: 200 µM

## CC(C)(C)n1nc(-c2ccc(Cl)cc2)c2c(N)ncnc21 [PP2]
[5]; Src family kinase inhibition
  effect on S1P-mediated endothelial cell barrier enhancement: did not affect S1P-mediated endothelial cell barrier enhancement
  effect on agonist-induced barrier disruption: blocked agonist-induced barrier disruption

## Nc1ncnc2c1ncn2[C@@H]1O[C@H](CO)[C@@H](O)[C@H]1O [adenosine]
[2]
  PA-I expression: increased
  PA-I promoter activity (fluorescence): enhanced fluorescence
  exposure time before PA-I promoter activity was observed: 6 h
[3]
  PA-I expression, compound alone in media: none of the other compounds alone had any effect

## OC[C@H]1O[C@@H](n2cnc3c(O)ncnc32)[C@H](O)[C@@H]1O [inosine]
[2]
  change in PA-I expression over time, magnitude versus adenosine: effect of inosine greater
  concentration inducing PA-I expression relative to adenosine: 10 fold less than adenosine
  onset of PA-I expression versus adenosine: at an earlier time point and at lower cell densities (OD) compared to adenosine

## C=CCN1CC[C@]23c4c5ccc(O)c4O[C@H]2C(=O)CC[C@@]3(O)[C@H]1C5 [naloxone]
[2]
  effect on morphine-induced PA-I lectin/adhesin expression: significantly attenuated
[6]
  lipid solubility / polarity: fairly lipid-soluble
[5]
  effect on MS- and DAMGO-induced endothelial cell barrier disruption: blocked
[5]; 0.1 μM
  barrier protection with thrombin and LPS challenge: did not display the same endothelial cell barrier-protective effects as MNTX
S1P3 receptor
  effect on morphine- and DAMGO-induced S1P3 receptor transactivation: blocked the effects of morphine and DAMGO
[7]
  crossing of the blood-brain barrier: crosses the blood-brain barrier easily

## EGF: human cytokine tested for membrane binding
[8]
  binding to P. aeruginosa membrane fractions: No binding was observed

## IFN-γ: human recombinant interferon gamma
[8]; PA27853
  binding to whole bacterial cells: high binding affinity
[8]; PAO1
  ELISA binding to whole fixed cells: avidly bound to whole fixed cells of P. aeruginosa in a dose-dependent manner
  bacterial cells that bound IFN-γ (immunofluorescent imaging): 73%±3.2%
[8]
  binding to P. aeruginosa membrane fractions: preferentially bound to membrane fractions
[9]
  binding to purified OprF: directly binds
[2]
  PA-I expression (fluorescence): significant increase in PA-1 expression
[10]; 100 ng/ml IFN-γ
  C4-HSL synthesis: increased
[10]; Northern blot
  rhlI gene transcription: induced rhl1 transcription
[3]
  PA-I expression: induced PA-I expression
  PA-I expression, compound alone in media: induced a direct effect on PA-I expression
  PA-I mRNA and protein: increased
  PA-I protein expression, dose dependence: dose dependent, with the greatest increase seen with 100 ng/ml
  lecA (PA-I) mRNA by Northern blot: induced lecA mRNA
  response to express PA-I: induce a robust response
[4]
  pyocyanin production: increased pyocyanin production
Caco-2 cell monolayers
  enhancement of barrier dysregulating effect of PA27853: about 20%

## IL-4: human cytokine
[8]
  binding to P. aeruginosa membrane fractions: No binding was observed

## IL-6: human cytokine
[3]
  PA-I expression, compound alone in media: none of the other compounds alone had any effect

## IL-8: human cytokine
[3]
  PA-I expression, compound alone in media: none of the other compounds alone had any effect

## IL-10: human cytokine
[8]
  binding to P. aeruginosa membrane fractions: No binding was observed

## TGF-β
[8]
  binding to P. aeruginosa membrane fractions: No binding was observed

## TNF-α
[8]
  binding to P. aeruginosa membrane fractions: No binding was observed
[3]
  PA-I expression, compound alone in media: none of the other compounds alone had any effect

## Thrombin
[5]
  effect of agonist alone on endothelial cell barrier function (TER): induced a rapid transient decrease in endothelial cell barrier function

## adenosine deaminase
[2]; Caco-2
  PA-I expression after adenosine depletion of HIF-1-α-activated Caco-2 media: even greater increase in PA-I expression

## dynorphin
[4]
  PCN production: enhanced PCN production in a dose-dependent manner
